Reference: patent US10752587B2, “Homobispiperidinyl derivatives as liver X receptor beta agonists, compositions and their use” (Merck Sharp & Dohme Corp., priority 2015, dated 2020)
pEC50: −log10 of the molar value. Where two headings read alike, the source gives them in different places.

What was measured:
[1] = biological target: T1, glutathione-S-transferase (GST) tagged LXRbeta LBD (ligand binding domain) (Homo sapiens, UniProt P55055); experiment: LanthaScreen TR-FRET Liver X Receptor Coactivator Assay, co-activator recruitment to LXRbeta LBD; format: biochemical
T1 construct: purchased Invitrogen pv4658.pps
T1 sequence (P55055 222-460 limits assumed): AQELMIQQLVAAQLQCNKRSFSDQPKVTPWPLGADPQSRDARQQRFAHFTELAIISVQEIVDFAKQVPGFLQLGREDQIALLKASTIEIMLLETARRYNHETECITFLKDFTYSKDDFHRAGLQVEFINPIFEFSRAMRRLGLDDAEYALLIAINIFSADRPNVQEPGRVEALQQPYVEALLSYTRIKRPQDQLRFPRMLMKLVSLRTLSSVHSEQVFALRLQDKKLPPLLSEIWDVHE
How it was run: (§1)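 Readout is time-resolved FRET between a terbium anti-GST antibody bound to the LBD and a fluorescein-tagged coactivator peptide recruited on ligand binding. Plates were incubated at room temperature before reading. Potency (IP) and efficacy (Emax) are referenced to T0901317.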

[2] = biological target: T2, glutathione-S-transferase (GST) tagged LXRalpha LBD (ligand binding domain) (Homo sapiens, UniProt Q13133); experiment: LanthaScreen TR-FRET Liver X Receptor Coactivator Assay, co-activator recruitment to LXRalpha LBD; format: biochemical; conditions: for pEC50 / LXR alpha IP (nM): potency (Inflection Point, IP), co-activator recruitment to LXRalpha LBD, in relation to T0901317; for pEC50: read-out: LXR alpha IP
T2 construct: purchased Invitrogen pv4655
T2 sequence (Q13133 209-447 limits assumed): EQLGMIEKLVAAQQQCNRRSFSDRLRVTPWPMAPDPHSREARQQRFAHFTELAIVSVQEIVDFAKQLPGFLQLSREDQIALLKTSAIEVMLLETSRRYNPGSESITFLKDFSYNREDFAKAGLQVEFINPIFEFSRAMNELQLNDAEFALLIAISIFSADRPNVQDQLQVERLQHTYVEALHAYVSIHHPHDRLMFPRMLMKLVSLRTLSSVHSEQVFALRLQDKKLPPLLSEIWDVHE
How it was run: as §1

[3] = efficacy at max dose, in relation to reference dual agonist T0901317, read-out: LXR beta Activity @ max dose (%)
[4] = potency (Inflection Point, IP), co-activator recruitment to LXRbeta LBD, in relation to T0901317, read-out: LXR beta IP
[5] = efficacy at max dose, in relation to reference dual agonist T0901317, read-out: LXR alpha Activity @ max dose (%)

Row | SMILES | Emax [1, 3] [%] | pEC50 [1, 4] | Emax [2, 5] [%] | pEC50 [2] | LXR alpha IP (nM) [2] | pEC50 ([1]; co-activator recruitment to GST-LXRbeta LBD, TR-FRET, read-out: LXR beta IP (Inflection Point, potency)) | Emax ([1]; efficacy in relation to reference dual agonist T0901317, read-out: LXR beta Activity @ max dose) [%] | LXR alpha IP (Inflection Point, potency) ([2]; co-activator recruitment to GST-LXRalpha LBD, TR-FRET) | Emax ([2]; efficacy in relation to reference dual agonist T0901317, read-out: LXR alpha Activity @ max dose) [%]
1 | CNC(=O)c1ccc(N2CCC(CC3CCN(C(=O)[C@](O)(c4cccc(OC(F)(F)F)c4)C(F)(F)F)CC3)CC2)cc1Cl [Example 7-125, 2-chloro-N-methyl-4-{4-[(1-{(2R)-3,3,3-trifluoro-2-hydroxy-2-[3-(trifluoromethoxy)phenyl]propanoyl}piperidin-4-yl)methyl]piperidin-1-yl}benzamide] | 79 | 7.43 | 24 | 6.13 |  |  |  |  | 
2 | CNC(=O)c1ccc(N2CCC(CC3CCN(C(=O)[C@](O)(c4cccc(F)c4)C(F)(F)F)CC3)CC2)nc1Cl [Example 7-152, 2-chloro-N-methyl-6-[4-({1-[(2R)-3,3,3-trifluoro-2-(3-fluorophenyl)-2-hydroxypropanoyl]piperidin-4-yl}methyl)piperidin-1-yl]pyridine-3-carboxamide] | 127 | 8.22 | 58 | 7.16 |  |  |  |  | 
3 | CN(C)C(=O)c1ccc(N2CCC(CC3(C)CCN(C(=O)[C@](O)(c4cccc(Cl)c4)C(F)(F)F)CC3)CC2)cc1Cl [Example 2-47, 2-chloro-4-[4-({1-[(2R)-2-(3-chloro-phenyl)-3,3,3-trifluoro-2-hydroxy-propanoyl]-4-methyl-piperidin-4-yl}methyl)piperidin-1-yl]-N,N-dimethyl-benzamide] | 49 | 8.40 | 7 |  | NO IP |  |  |  | 
4 | CNC(=O)c1ccc(N2CCC(CC3CCN(C(=O)C(O)(c4cccc(C(F)(F)F)c4)C(F)(F)F)CC3)CC2)cc1Cl (stereo not drawn) [Example 7-35, 2-chloro-N-methyl-4-{4-[(1-{3,3,3-trifluoro-2-hydroxy-2-[3-(trifluoromethyl)phenyl]propanoyl}piperidin-4-yl)methyl]piperidin-1-yl}benzamide] | 78 | 7.02 | 25 | 6.11 |  |  |  |  | 
5 | CCOc1cccc([C@@](O)(C(=O)N2CCC(C)(CC3CCN(c4ccc(C(=O)N(C)C)c(Cl)c4)CC3)CC2)C(F)(F)F)c1 [Example 2-50, 2-chloro-4-[4-({1-[(2R) 2-(3-ethoxy-phenyl)-3,3,3-trifluoro-2-hydroxy-propanoyl]-4-methyl-piperidin-4-yl}methyl)piperidin-1-yl]-N,N-dimethyl-benzamide] | 29 | 8.10 | 0 |  | NO IP |  |  |  | 
6 | Cc1nc(N2CCC(CC3CCN(C(=O)[C@](O)(c4ccccc4)C(F)(F)F)CC3)CC2)ccc1C(=O)N(C)C [Example 7-1, (R)—N,N,2-trimethyl-6-(4-((1-(3,3,3-trifluoro-2-hydroxy-2-phenylpropanoyl)piperidin-4-yl)methyl)piperidin-1-yl)nicotinamide] | 80 | 7.72 | 35 | 6.05 |  |  |  |  | 
7 | CN(C)C(=O)c1ccc(N2CCC(CC3CCN(C(=O)C(N)(c4ccccc4)C(F)(F)F)CC3)CC2)nc1Cl (stereo not drawn) [Example 7-103, 6-(4-{[1-(2-amino-3,3,3-trifluoro-2-phenylpropanoyl)piperidin-4-yl]methyl}piperidin-1-yl)-2-chloro-N,N-dimethylpyridine-3-carboxamide] | 122 | 7.51 | 47 | 5.77 |  |  |  |  | 
8 | CNC(=O)c1ccc(N2CCC(OC3CCN(C(=O)C(O)(c4cccc(OC)c4)C(F)(F)F)CC3)CC2)cc1Cl (stereo not drawn) [Example 7-32, 2-chloro-N-methyl-4-[4-({1-[3,3,3-trifluoro-2-hydroxy-2-(3-methoxyphenyl)propanoyl]piperidin-4-yl}oxy)piperidin-1-yl]benzamide] | 92 | 6.74 | 18 | 5.37 |  |  |  |  | 
9 | COc1cc(Cl)cc([C@@](O)(C(=O)N2CCC(CC3CCN(c4ccc(C(=O)N(C)C)cc4)CC3)CC2)C(F)(F)F)c1 [Example 2-138, 4-[4-({1-[(2R)-2-(3-chloro-5-methoxyphenyl)-3,3,3-trifluoro-2-hydroxy-propanoyl]piperidin-4-yl}methyl)piperidin-1-yl]-N,N-dimethyl-benzamide] | 35 | 7.13 | 0 |  | NO IP |  |  |  | 
10 | CN(C)C(=O)c1ccc(N2CCC(CC3CCN(C(=O)OC(C)(C)C)CC3)CC2)cc1Cl [Example 1-1, tert-butyl 4-((1-(3-chloro-4-(dimethylcarbamoyl)phenyl)piperidin-4-yl)methyl)piperidine-1-carboxylate] | 63 | 6.87 | 22 | 6.07 |  |  |  |  | 
11 | COc1cccc([C@@](O)(C(=O)N2CCCC(CC3CCN(c4ccc(C(=O)N(C)C)c(Cl)c4)CC3)CC2)C(F)(F)F)c1 (stereo partly drawn) [Example 2-161, 2-chloro-N,N-dimethyl-4-[4-({1-[(2R)-3,3,3-trifluoro-2-hydroxy-2-(3-methoxy-phenyl)propanoyl]azepan-4-yl}methyl)piperidin-1-yl]benzamide] | 28 | 7.89 | 0 |  | NO IP |  |  |  | 
12 | CN(C)C(=O)c1ccc(N2CCC(CC3CCN(S(=O)(=O)c4cccc(OC(F)(F)F)c4)CC3)CC2)cc1Cl [Example 13-16] |  |  |  |  |  | 6.87 | 35 | NO IP | 0
